According to patent US20250269039A1, “THERAPEUTIC-OLIGONUCLEOTIDES ACTIVATED BY NUCLEASES” (priority 2020, published 2025):

Columns and labels:
[1] = system: S. aureus ATCC 1768 (MRSA); experiment: Broth microdilution MIC and growth inhibition; format: cell-based, Staphylococcus aureus
Text: (§1) Bacteria strains. S. aureus NCTC 12493 (MRSA), S. aureus ATCC 29213 (MSSA), S. aureus ATCC 43300 (MRSA), S. aureus ATCC 1707 (MRSA), S. aureus ATCC 1717 (MRSA), S. aureus ATCC 1747 (MRSA), S. aureus ATCC 1761 (MRSA), S. aureus ATCC 1766 (MRSA), S. aureus ATCC 1768 (MRSA), S. epidermidis ATCC 35984, E. coli ATCC 25922, K. pneumoniae ATCC 13883, P. mirabilis ATCC 25933, S. enterica ATCC 14028 and P. aeruginosa ATCC 10145 strains were used in this study. Bacteria were initially inoculated onto tryptone soy agar with 5% defibrinated sheep blood (Thermo Fisher Scientific, Inc., Waltham, MA, USA) and incubated at 37° C. for 24 hours. Then, single colonies of each strain were transferred to tryptone soy broth (Thermo Fisher Scientific) for the nuclease activity assay or antimicrobial susceptibility testing, respectively.
(§2) Antimicrobial susceptibility testing. Minimal inhibitory concentrations (MIC) of all nucleoside analogues and TOUCANs against each bacteria strain were determined using broth microdilution method. A single colony obtained from overnight culture on tryptone soy agar with 5% defibrinated sheep blood was inoculated in cation-adjusted Mueller Hinton Broth and adjusted to 10^6 CFU/mL. TOUCANs were prepared in PBS+/+ (treatment) and serial dilutions were made in 96-well polystyrene round bottom microwell plates with 50 μL final volume for each concentration. PBS+/+ was used as untreated control. Next, 50 μL bacteria solutions were added to each well to a final bacteria concentration of 5×10^5 CFU/mL. Plates were incubated at 37° C. in Cytation 1 Cell Imaging Multimode Reader. Growth curves were obtained by measuring optical densities at 600 nm every 10 minutes for 18 hours using Cytation 1 Cell Imaging Multimode Reader. In addition, visual inspection of the plates was carried out after 18 hours and photographs were taken. MICs were defined as the lowest drug concentration in the microwell at which bacterial growth was not visible at the end of the incubation period. Besides MIC determination, specificity of TOUCAN 7mGe was also shown with subcultures on chromogenic media. For this purpose, 5 μL of different concentrations of each strain were inoculated onto CHROM agar Orientation Media (Becton Dickinson) and the bacterial growth of each bacteria strain tested was observed by naked eye after incubation at 37° C. for 24 hours. Finally, photographs of the chromogenic media were taken.

[2] = system: S. aureus ATCC 29213 (MSSA); experiment: Broth microdilution MIC and growth inhibition; format: cell-based, Staphylococcus aureus; details: S. aureus ATCC 29213 (MSSA)
Text: as §1, §2

[3] = system: S. aureus ATCC 1717 (MRSA); experiment: Broth microdilution MIC and growth inhibition; format: cell-based, Staphylococcus aureus
Text: as §1, §2

[4] = system: S. aureus ATCC 1761 (MRSA); experiment: Broth microdilution MIC and growth inhibition; format: cell-based, Staphylococcus aureus
Text: as §1, §2

[5] = system: S. aureus ATCC 1766 (MRSA); experiment: Broth microdilution MIC and growth inhibition; format: cell-based, Staphylococcus aureus; details: S. aureus ATCC 1766 (MRSA)
Text: as §1, §2

[6] = system: S. aureus ATCC 1747 (MRSA); experiment: Broth microdilution MIC and growth inhibition; format: cell-based, Staphylococcus aureus
Text: as §1, §2

[7] = system: S. aureus NCTC 12493 (MRSA); experiment: Broth microdilution MIC and growth inhibition; format: cell-based, Staphylococcus aureus; details: for growth inhibition, dose response: NCTC-12493 (MRSA), FIG. 5a-b
Text: as §1, §2

[8] = system: S. aureus ATCC 43300 (MRSA); experiment: Broth microdilution MIC and growth inhibition; format: cell-based, Staphylococcus aureus
Text: as §1, §2

[9] = system: S. aureus ATCC 1707 (MRSA); experiment: Broth microdilution MIC and growth inhibition; format: cell-based, Staphylococcus aureus
Text: as §1, §2

[10] = system: other pathogenic bacteria; experiment: Specificity study by visual inspection on chromogenic media, non-targeted control bacteria; format: cell-based; details: all concentrations tested, FIG. 1e
Method: as §2, with “For this purpose, 5 μL of different concentrations of each strain were inoculated onto CHROM agar Orientation Media (Becton Dickinson) and the bacterial growth of each bacteria strain tested was observed by naked eye after incubation at 37° C. for 24 hours. Finally, photographs of the chromogenic media were taken.” left out

[11] = system: Breast cancer cells (MDAMB231); experiment: Anti-cancer drug susceptibility testing, breast cancer cells, 72 h; format: cell-based; details: 72 h of treatment; Gemcitabine alone, TOUCAN 7mGe spiked with MN; FIG. 14
Method: (§3) Anti-cancer drug susceptibility testing for TOUCAN 7mGe. Gemcitabine and equivalent 7mGe solutions were prepared as explained before. Then, 7mGe was pre-exposed to 10 μl of 10 U MN for 1 hour at 37° C. (7mGe+MN). 100 μl of both drugs (Gemcitabine and 7mGe+MN) were added to the related wells and serially diluted using PBS+/+making the final concentrations between 100-2 μg/μl. Breast cancer cells (MDAMB231) and Pancreatic cancer cells (ASPC-1) were prepared as 10.000 cells/ml and 100 μl cell suspensions were added to each well. The plate was incubated at 37° C. for 72 hours. At 48th hour of incubation, 100 μl CyQUANT® Direct Cell Proliferation Assay kit was added to each well. Cell counts and images were taken at the end of 72 hours incubation period using Cytation 1 Cell Imaging Multi-Mode Reader.

[12] = system: S. epidermidis ATCC 35984; experiment: Broth microdilution MIC and growth inhibition (control bacteria); format: cell-based, Staphylococcus epidermidis
Text: as §1, §2

E. coli ATCC 25922 = experiment: as above; format: cell-based, Escherichia coli
Text: as §1, §2

S. aureus [13] = experiment: Growth inhibition curves / MICs in S. aureus cultures (strain not named or summary over strains); format: cell-based, Staphylococcus aureus
Method: as §2

S. aureus [14] = experiment: Specificity study by visual inspection on chromogenic media, targeted bacteria; format: cell-based, Staphylococcus aureus; details: FIG. 1e
Method: as §2, with “For this purpose, 5 μL of different concentrations of each strain were inoculated onto CHROM agar Orientation Media (Becton Dickinson) and the bacterial growth of each bacteria strain tested was observed by naked eye after incubation at 37° C. for 24 hours. Finally, photographs of the chromogenic media were taken.” left out

P. mirabilis ATCC 25933 = experiment: Broth microdilution MIC and growth inhibition (control bacteria); format: cell-based, Proteus mirabilis
Text: as §1, §2

S. enterica ATCC 14028 = experiment: as above; format: cell-based
Text: as §1, §2

P. aeruginosa ATCC 10145 = experiment: as above; format: cell-based
Text: as §1, §2

K. pneumoniae ATCC 13883 = experiment: as above; format: cell-based
Text: as §1, §2

[15] = system: Pancreatic cancer cells (ASPC-1); experiment: Anti-cancer drug susceptibility testing, pancreatic cancer cells, 72 h; format: cell-based; details: 72 h cultures; Gemcitabine alone, TOUCAN 7mGe spiked with MN; FIG. 13
Method: as §3

mU-mU-mU-mU-T-T-Ge [TOUCAN 7mGe]
MIC ([1]; 18 h, TOUCAN as NA equivalent): >40 µg/mL | TOUCAN % Growth inhibition ([1]; mean ± SD, n = 3): 61.9 ± 1.1% | MIC ([2]; 18 h, TOUCAN as NA equivalent): >40 µg/mL | TOUCAN % Growth inhibition ([2]; mean ± SD, n = 3): 52.5 ± 1.1% | MIC ([3]; 18 h, TOUCAN as NA equivalent): >40 µg/mL | TOUCAN % Growth inhibition ([3]; mean ± SD, n = 3): 72.9 ± 1.2% | TOUCAN MIC/NA MIC TOUCAN Efficacy Ratio (TER) [4]: 2500 | MIC ([4]; 18 h, TOUCAN as NA equivalent): 40 µg/mL | TOUCAN % Growth inhibition ([4]; mean ± SD, n = 3): 90.1% | MIC ([5]; 18 h, TOUCAN as NA equivalent): >40 µg/mL | TOUCAN % Growth inhibition ([5]; mean ± SD, n = 3): 86.2 ± 0.9% | MIC ([6]; 18 h, TOUCAN as NA equivalent): >40 µg/mL | TOUCAN % Growth inhibition ([6]; mean ± SD, n = 3): 44.9 ± 0.7% | growth inhibition, dose response ([7]; 1.25 and 2.5 g/mL): partial effect | growth inhibition, dose response ([7]; concentrations from 5 to 40 μg/mL): 96% | TOUCAN MIC/NA MIC TOUCAN Efficacy Ratio (TER) ([7]; S. aureus NCTC 12493 (MRSA)): 1250 | MIC ([7]; S. aureus NCTC 12493 (MRSA), 18 h, TOUCAN as NA equivalent): 5 µg/mL | TOUCAN % Growth inhibition ([7]; S. aureus NCTC 12493 (MRSA), mean ± SD, n = 3): 85.3% | MIC ([8]; 18 h, TOUCAN as NA equivalent): >40 µg/mL | TOUCAN % Growth inhibition ([8]; mean ± SD, n = 3): 66.6 ± 1.6% | MIC ([9]; 18 h, TOUCAN as NA equivalent): >40 µg/mL | TOUCAN % Growth inhibition ([9]; mean ± SD, n = 3): 61.5 ± 0.5% | viability on chromogenic media [10]: remained viable | therapeutic effect in breast cancer cells (viability) [11]: slightly higher | associated toxicity to non-targeted bacteria ([12]; S. epidermidis (control), FIG. 1d): minimal associated toxicity | MIC ([12]; S. epidermidis ATCC 35984, 18 h, TOUCAN as NA equivalent): >40 µg/mL | TOUCAN % Growth inhibition ([12]; S. epidermidis ATCC 35984, mean ± SD, n = 3): 3.6 ± 2.0% | growth inhibition, dose response ([12]; S. epidermidis, all concentrations tested, FIG. 5): No growth inhibition | MIC (E. coli ATCC 25922; 18 h, TOUCAN as NA equivalent): >40 µg/mL | TOUCAN % Growth inhibition (E. coli ATCC 25922; mean ± SD, n = 3): 0 ± 0.00% | growth inhibition (S. aureus [13]; S. aureus (target), FIG. 1d): high growth inhibition | bacterial growth inhibition (S. aureus [13]; S. aureus cultures, optical density (OD) over 18 h, FIG. 1b): 96% | inhibition of bacterial growth (therapeutic efficacy) (S. aureus [13]; combinations of the R-S-D moieties, FIG. 1c): more than 99% | inhibition on chromogenic media (S. aureus [14]; 5 μg/mL): partially inhibited | inhibition on chromogenic media (S. aureus [14]; 10 and 20 μg/mL): completely inhibited | MIC (P. mirabilis ATCC 25933; 18 h, TOUCAN as NA equivalent): >40 µg/mL | TOUCAN % Growth inhibition (P. mirabilis ATCC 25933; mean ± SD, n = 3): 8.3 ± 0.6% | MIC (S. enterica ATCC 14028; 18 h, TOUCAN as NA equivalent): >40 µg/mL | TOUCAN % Growth inhibition (S. enterica ATCC 14028; mean ± SD, n = 3): 12.5 ± 5.7% | MIC (P. aeruginosa ATCC 10145; 18 h, TOUCAN as NA equivalent): >40 µg/mL | TOUCAN % Growth inhibition (P. aeruginosa ATCC 10145; mean ± SD, n = 3): 0 ± 0.00% | MIC (K. pneumoniae ATCC 13883; 18 h, TOUCAN as NA equivalent): >40 µg/mL | TOUCAN % Growth inhibition (K. pneumoniae ATCC 13883; mean ± SD, n = 3): 4.9 ± 3.1% | killing of pancreatic cancer cells (viability) [15]: efficient in killing
